{"source": "patent US9795135B2", "about": "“Binary fungicidal composition” (BAYER CORPSCIENCE AKTIENGESELLSCHAFT, priority 2013, dated 2017)", "data": [{"system": "Alternaria solani", "assay": "Alternaria test (tomatoes) / preventive", "format": "in vivo", "settings": "80 ppm a.i.; tomatoes sprayed 24 h before inoculation; evaluated 3 days after inoculation", "description": "Alternaria Test (Tomatoes)/Preventive\n(§1) Biological control agents and diverse chemical active compounds were tested solo and in a mixture of both. The biological control agents SERENADE® DPZ (comprising the biological control agent B1.1.18, Bacillus subtilis, strain AQ30002, Accession No. NRRL B-50421), SERENADE® ASO (comprising the biological control agent B1.1.1, Bacillus subtilis, strain QST713/AQ713, Accession No. NRRL B-21661) and SONATA® (comprising the biological control agent B1.1.6, Bacillus pumilus, strain QST2808, Accession No. NRRL B-30087) were diluted with water to the desired application rate of 100 ppm a.i. to 500 ppm a.i., referring to the amount of 1.34% Bacillus subtilis or 1.38% Bacillus pumilis product.\nThe chemical compounds were solved in acetone+dimethylacetamide in a ratio of 1/1+2% PS 16 (Alkylarylpolyglykolether) and diluted with water or the prepared bacteria suspension. Chemical compounds were tested in the concentration of 80 ppm a.i.\nIn order to test the activity, young plants of tomatoes (21 d after sowing) were sprayed with the preparation of active compound at the stated rate of application. 24 h after application, the plants were inoculated with an aqueous spore suspension (7.500 spores/ml) of Alternaria solani. The wetted plants were then placed in an incubation cabinet at approximately 20° C. and a relative atmospheric humidity of 100% and darkness.\nThe test was evaluated 3 days after the inoculation. Assessment: % infested leaf. 0% efficacy corresponds to the level of disease in the untreated control while an efficacy of 100% means that no disease is observed.", "units": {"Efficacy in % Found*": "%"}, "values": [{"smiles": "CC1(C)N=C(c2cnc3ccccc3c2)c2cccc(F)c2C1(C)C", "note": "[(I-1)]", "Efficacy in % Found*": 37}, {"smiles": "CC1(C)N=C(c2cnc3ccccc3c2)c2ccccc2C1(F)F", "note": "[(I-2)]", "Efficacy in % Found*": 13}, {"smiles": "CC1(C)N=C(c2cnc3ccccc3c2)c2cccc(F)c2C1(F)F", "note": "[(I-3)]", "Efficacy in % Found*": 37}]}, {"system": "Sphaerotheca fuliginea", "assay": "Sphaerotheca test (cucumbers) / preventive", "format": "in vivo", "settings": "80 ppm a.i.; cucumber sprayed 24 h before inoculation; evaluated 7 d after inoculation", "description": "Sphaerotheca Test (Cucumbers)/Preventive\nas §1, with “B-50421), SERENADE” for “B-50421), SERENADE®”\nThe chemical compounds were solved in acetone+dimethylacetamide in the ratio 1/1+2% PS 16 (Alkylarylpolyglykolether) and diluted with water or the prepared bacteria suspension. Chemical compounds were tested in the concentration of 80 ppm a.i.\nIn order to test the activity, young plants (kotyledones are fully developed) of cucumber c.v. “Delikatess” were sprayed with the undermentioned preparation of compounds at the stated time of application. 24 h after application, the plants were inoculated with an aqueous spore suspension of Sphaerotheca fuliginea. Infested plants were stored in greenhouse at 22° C. and 70% relative humidity.\nThe test was evaluated 7 d after inoculation. Assessment: % infested leaf. 0% efficacy corresponds to the level of disease in the untreated control while an efficacy of 100% means that no disease is observed.", "units": {"Efficacy in % Found*": "%"}, "values": [{"smiles": "CC1(C)N=C(c2cnc3ccccc3c2)c2cccc(F)c2C1(C)C", "note": "[(I-1)]", "Efficacy in % Found*": 49}, {"smiles": "CC1(C)N=C(c2cnc3ccccc3c2)c2ccccc2C1(F)F", "note": "[(I-2)]", "Efficacy in % Found*": 35}, {"smiles": "CC1(C)N=C(c2cnc3ccccc3c2)c2cccc(F)c2C1(F)F", "note": "[(I-3)]", "Efficacy in % Found*": 32}]}]}
